Source: patent US10538554B2, “Peptides and uses therefor as antiviral agents” (priority 2015, dated 2020)
Like-named read-outs stand apart in the source and are kept apart here. Bridge positions count the residues as written; N and C are the ends. Square brackets hold non-standard residues; d marks the D form. Peptide text beside a SMILES is read from it.

What was measured:
H9N2 A/Iran/16/2000 = conditions: 48 h, 50 μM
[1] = test system: H1N1 A1/Malaysia/302/1954; conditions: A1/Malaysia/302/1954, 48 h, 50 μM
H3N8 A/Miami/2/63 = conditions: A/Miami/2/63, 48 h
H3N2 A/HK/8/1968 = conditions: A/HK/8/1968, 48 h, 50 μM

Compound | % inhibition H9N2 (H9N2 A/Iran/16/2000) | % inhibition H1N1 [1] | % inhibition H3N8 (H3N8 A/Miami/2/63; 50 μM) | % inhibition H3N2 (H3N2 A/HK/8/1968) | % inhibition H3N8 (H3N8 A/Miami/2/63; 500 μM)
CC[C@@H](C)[C@H]1NC(=O)[C@@H](Cc2ccccc2)NC(=O)[C@@H](CCCNC(=N)N)NC(=O)[C@@H]([C@H](C)CC)NC(=O)[C@@H](Cc2c[nH]c3ccccc23)NC(=O)[C@@H]([C@H](C)O)NC(=O)[C@H](NC(=O)[C@H](CCCCN)NC(=O)[C@H](CCCCN)NC(=O)[C@H](CCCNC(=N)N)NC(=O)[C@@H](N)CCCNC(=N)N)CSSC[C@H](C(=O)O)NC(=O)[C@@H](CC(N)=O)NC1=O [PSP III B8, H-RRKKctwirfinc-OH] (H-RRKK[dC][dT][dW][dI][dR][dF][dI][dN][dC]-OH; disulfide 5-13) | 81% | 88% | 91% | 100% | –
CC[C@@H](C)[C@H]1NC(=O)[C@@H](Cc2ccccc2)NC(=O)[C@@H](CCCNC(=N)N)NC(=O)[C@@H](CCCCN)NC(=O)[C@@H](Cc2c[nH]c3ccccc23)NC(=O)[C@@H]([C@H](C)O)NC(=O)[C@H](NC(=O)[C@H](CCCCN)NC(=O)[C@H](CCCCN)NC(=O)[C@H](CCCNC(=N)N)NC(=O)[C@@H](N)CCCNC(=N)N)CSSC[C@H](C(=O)O)NC(=O)[C@@H](CC(N)=O)NC1=O [PSP III B9, H-RRKKctwkrfinc-OH] (H-RRKK[dC][dT][dW][dK][dR][dF][dI][dN][dC]-OH; disulfide 5-13) | 90% | 90% | 96% | 96% | –
CC[C@@H](C)[C@H]1NC(=O)[C@@H](Cc2ccccc2)NC(=O)[C@@H](CCCNC(=N)N)NC(=O)[C@@H](CC(C)C)NC(=O)[C@@H](Cc2c[nH]c3ccccc23)NC(=O)[C@@H]([C@H](C)O)NC(=O)[C@H](NC(=O)[C@H](CCCCN)NC(=O)[C@H](CCCCN)NC(=O)[C@H](CCCNC(=N)N)NC(=O)[C@@H](N)CCCNC(=N)N)CSSC[C@H](C(=O)O)NC(=O)[C@@H](CC(N)=O)NC1=O [PSP III B10, H-RRKKctwlrfinc-OH] (H-RRKK[dC][dT][dW][dL][dR][dF][dI][dN][dC]-OH; disulfide 5-13) | 90% | 92% | 96% | 100% | –
CC[C@@H](C)[C@H]1NC(=O)[C@@H](Cc2ccccc2)NC(=O)[C@@H](CCCNC(=N)N)NC(=O)[C@@H](CCSC)NC(=O)[C@@H](Cc2c[nH]c3ccccc23)NC(=O)[C@@H]([C@H](C)O)NC(=O)[C@H](NC(=O)[C@H](CCCCN)NC(=O)[C@H](CCCCN)NC(=O)[C@H](CCCNC(=N)N)NC(=O)[C@@H](N)CCCNC(=N)N)CSSC[C@H](C(=O)O)NC(=O)[C@@H](CC(N)=O)NC1=O [PSP III B11, H-RRKKctwmrfinc-OH] (H-RRKK[dC][dT][dW][dM][dR][dF][dI][dN][dC]-OH; disulfide 5-13) | 93% | 94% | 96% | 100% | –
CC[C@@H](C)[C@H]1NC(=O)[C@@H](Cc2ccccc2)NC(=O)[C@@H](CCCNC(=N)N)NC(=O)[C@@H](CC(N)=O)NC(=O)[C@@H](Cc2c[nH]c3ccccc23)NC(=O)[C@@H]([C@H](C)O)NC(=O)[C@H](NC(=O)[C@H](CCCCN)NC(=O)[C@H](CCCCN)NC(=O)[C@H](CCCNC(=N)N)NC(=O)[C@@H](N)CCCNC(=N)N)CSSC[C@H](C(=O)O)NC(=O)[C@@H](CC(N)=O)NC1=O [PSP III B12, H-RRKKctwnrfinc-OH] (H-RRKK[dC][dT][dW][dN][dR][dF][dI][dN][dC]-OH; disulfide 5-13) | 83% | 75% | 87% | 100% | –
CC[C@@H](C)[C@H]1NC(=O)[C@@H](Cc2ccccc2)NC(=O)[C@@H](CCCNC(=N)N)NC(=O)[C@H]2CCCN2C(=O)[C@@H](Cc2c[nH]c3ccccc23)NC(=O)[C@@H]([C@H](C)O)NC(=O)[C@H](NC(=O)[C@H](CCCCN)NC(=O)[C@H](CCCCN)NC(=O)[C@H](CCCNC(=N)N)NC(=O)[C@@H](N)CCCNC(=N)N)CSSC[C@H](C(=O)O)NC(=O)[C@@H](CC(N)=O)NC1=O [PSP III B13, H-RRKKctwprfinc-OH] (H-RRKK[dC][dT][dW][dP][dR][dF][dI][dN][dC]-OH; disulfide 5-13) | 79% | 63% | 83% | 96% | –
CC[C@@H](C)[C@H]1NC(=O)[C@@H](Cc2ccccc2)NC(=O)[C@@H](CCCNC(=N)N)NC(=O)[C@@H](CCC(N)=O)NC(=O)[C@@H](Cc2c[nH]c3ccccc23)NC(=O)[C@@H]([C@H](C)O)NC(=O)[C@H](NC(=O)[C@H](CCCCN)NC(=O)[C@H](CCCCN)NC(=O)[C@H](CCCNC(=N)N)NC(=O)[C@@H](N)CCCNC(=N)N)CSSC[C@H](C(=O)O)NC(=O)[C@@H](CC(N)=O)NC1=O [PSP III B14, H-RRKKctwqrfinc-OH] (H-RRKK[dC][dT][dW][dQ][dR][dF][dI][dN][dC]-OH; disulfide 5-13) | 86% | 83% | 87% | 96% | –
CC[C@@H](C)[C@H]1NC(=O)[C@@H](Cc2ccccc2)NC(=O)[C@@H](CCCNC(=N)N)NC(=O)[C@@H](CCCNC(=N)N)NC(=O)[C@@H](Cc2c[nH]c3ccccc23)NC(=O)[C@@H]([C@H](C)O)NC(=O)[C@H](NC(=O)[C@H](CCCCN)NC(=O)[C@H](CCCCN)NC(=O)[C@H](CCCNC(=N)N)NC(=O)[C@@H](N)CCCNC(=N)N)CSSC[C@H](C(=O)O)NC(=O)[C@@H](CC(N)=O)NC1=O [PSP III B15, H-RRKKctwrrfinc-OH] (H-RRKK[dC][dT][dW][dR][dR][dF][dI][dN][dC]-OH; disulfide 5-13) | 84% | 83% | 91% | 100% | –
CC[C@@H](C)[C@H]1NC(=O)[C@@H](Cc2ccccc2)NC(=O)[C@@H](CCCNC(=N)N)NC(=O)[C@@H](CO)NC(=O)[C@@H](Cc2c[nH]c3ccccc23)NC(=O)[C@@H]([C@H](C)O)NC(=O)[C@H](NC(=O)[C@H](CCCCN)NC(=O)[C@H](CCCCN)NC(=O)[C@H](CCCNC(=N)N)NC(=O)[C@@H](N)CCCNC(=N)N)CSSC[C@H](C(=O)O)NC(=O)[C@@H](CC(N)=O)NC1=O [PSP III B16, H-RRKKctwsrfinc-OH] (H-RRKK[dC][dT][dW][dS][dR][dF][dI][dN][dC]-OH; disulfide 5-13) | 88% | 88% | 96% | 96% | 100%
CC[C@@H](C)[C@H]1NC(=O)[C@@H](Cc2ccccc2)NC(=O)[C@@H](CCCNC(=N)N)NC(=O)[C@@H]([C@H](C)O)NC(=O)[C@@H](Cc2c[nH]c3ccccc23)NC(=O)[C@@H]([C@H](C)O)NC(=O)[C@H](NC(=O)[C@H](CCCCN)NC(=O)[C@H](CCCCN)NC(=O)[C@H](CCCNC(=N)N)NC(=O)[C@@H](N)CCCNC(=N)N)CSSC[C@H](C(=O)O)NC(=O)[C@@H](CC(N)=O)NC1=O [PSP III B17, H-RRKKctwtrfinc-OH] (H-RRKK[dC][dT][dW][dT][dR][dF][dI][dN][dC]-OH; disulfide 5-13) | 86% | 79% | 96% | 96% | –
